Reference: publication PMC8370991, “Structural basis for the inhibition of HTLV-1 integration inferred from cryo-EM deltaretroviral intasome structures” (Nature Communications, 2021)
Read-outs that look alike come from different tables or passages of the source.

Assays:
[1] = test system: HTLV-1; assay: MT-2-Jurkat cell-to-cell HTLV-1 infection, proviral load by qPCR; type: cell-based; conditions: HTLV-1 infection of Jurkat T cells
Procedure: Six of the most promising compounds were selected for assessment of their efficacy in inhibiting HTLV-1 viral infection. To this end, we employed an MT-2-Jurkat co-culture relying on cell-to-cell-based HTLV-1 transmission, which we successfully used in a previous study. In this assay format, the infection of Jurkat cells is measured via real-time quantitative PCR (qPCR) determination of the proviral load (PVL). […] A block in the integration reaction was confirmed by Alu-qPCR experiments (Supplementary Fig. 6). […] We suspect this is owing to a more efficient uptake of BIC than RAL by Jurkat T cells.
MT-2 and E6.1 Jurkat T-cell lines (ATCC) were used for the experiments. The cells were cultured at 37 °C with 5% CO2 and maintained in Roswell Park Memorial Institute (RPMI) media supplemented with 10% fetal bovine serum (FBS), 100 U penicillin, 100 μg/mL streptomycin and 0.25 μg/mL fungizone.
The HTLV-1 cell-to-cell infection was performed as previously described; Jurkat T cells were counted and diluted in complete RPMI to a final concentration of 0.25 × 10^6 cells/ml and pre-treated with INSTI drugs (final concentration ranging from 0.2 pM to 2 μM) or DMSO as a control for 24 h. MT-2 cells were resuspended in RPMI at a concentration of 2 × 10^6 cells/ml and subjected to a nonlethal γ-radiation dose of 400 Gy. Cells were resuspended at a concentration of 2 × 10^6 cells/ml in serum-free RPMI supplemented with the corresponding INSTI drug. Co-culture of 0.5 × 10^6 for each cell line was carried out for 16 h, after which cells were washed in PBS and resuspended in 1 ml of depletion buffer (PBS, 0.1% FBS and 2 mM EGTA). MT-2 cells were depleted from the culture by means of anti-CD25 magnetic beads (DynabeadsTM CD25, Thermo Fisher). Depletion efficiency was confirmed via flow cytometry as described previously. Jurkat cells were cultured for 2 weeks in complete RPMI supplemented with the drugs and genomic DNA was extracted (DNeasy kit, Qiagen) and stored at −20 °C for subsequent analysis. All the experiments were done in triplicate.
The PVL was measured as previously described[9],[53],[54]. Jurkat genomic DNA was quantified and diluted to a concentration of 5 ng/μL. Real-time qPCR analysis were conducted on 20 ng of gDNA to measure the level of HTLV-1 tax and gapdh genes (Supplementary Table 5). For the standard curve, the gDNA from an HTLV-1 naturally infected T-cell clone (clone 11.50, courtesy of professor Charles Bangham), which has one copy of tax and two of gapdh, was used. The integrated provirus copy number was calculated as follows: (tax copy numbers)/(2×gapdh copy number)[53], and normalised to the DMSO-treated control which was set to 100%. The PVL data were fitted to a dose–response curve in Prism 7 and the EC50 was calculated. Alu-PCR was performed as previously described in ref. [55]. In brief, the first PCR reaction was done with Phusion polymerase starting from 80 ng of gDNA using the ALU-specific primers (Alu-F/Gag-R). The nested PCR was run diluting the amplificated product 1:50. The reaction was done as a qPCR using Gag-specific primers (Gag-R/Gag-F) and the Luna SYBR dye reaction mix (New England Biolabs). The integrated provirus copy numbers were normalised to GAPDH and Jurkat cells treated with DMSO and infected with HTLV-1 were set to 100%. Experiments were done in triplicate.

[2] = test system: HIV-1; conditions: HIV-1 infection model; supplementary ref 18; read-out: HIV-1 EC50 ± stdev; cited from earlier work
[3] = test system: STLV-1 intasome; assay: EMSA of stability (retention) of assembled STLV-1 intasome; conditions: three hours of incubation with the drug
Procedure: The donor DNA (vDNA) that mimics the 3′-processed LTR of STLV-1 DNA was preassembled by annealing Atto-680-labelled MarB43_U5_S30UP and MarB43_U5_S30B oligonucleotides (Supplementary Table 4) in 100 mM Tris pH 7.4, 400 mM NaCl. In all, 16 μg of STLV-1 IN or its mutants were co-incubated with 38.4 μg of LEDGF/ΔIBD-B56γ at 4 °C for 30 min to allow binding. Samples were then supplemented with 0.5 μL 20 μM Atto680-labelled vDNA, and sufficiently diluted to give a final NaCl concentration of 60 mM. This was immediately placed in a 37 °C heating block for 10 min. The sample was then returned to room temperature (RT) and any precipitate was resolubilised by the addition of NaCl to a final concentration of 1.2 M. After equilibration of the samples at RT for 10 min, the samples were either immediately supplemented with 10 μg/mL heparin or, where stated, were incubated further or additional reagents/INSTIs were added, as described. Samples, supplemented with 10 μg/mL heparin, devoid of loading dye were carefully loaded onto a 3% low melting point agarose gel containing 10 μg/mL heparin and electrophoresed, avoiding overheating. Densitometry analysis was carried out in ImageJ v1.50i. Measurements from at least three independent experiments were taken. Standard deviations and p values were calculated in Prism 9.
Supplementary Figure 10 | STLV-1 IN A219E binds more B56g and stabilises the deltaretroviral intasome. a, Pulldown of LEDGF/ΔIBD-B56γ by wild type His6-STLV-1 IN and its mutants. Mutations introduced in the IN:B56 binding interface can strengthen the interaction. b, A219E-mutated STLV-1 IN increases the amount of intasome assembled in vitro in an EMSA assay, compared to wild type IN. Values are normalised to wild type STLV-1 IN. c, EMSA study of the effect of addition of BIC on the stability (retention) of the assembled STLV-1 intasome after three hours of incubation with the drug. Values shown represent percentage of intasome retained as compared to intasome assayed by EMSA straight after assembly. Averages and standard deviations are shown for two independent biological replicates. Primary data from pull-down assays and EMSA is also included below each panel. The red arrow indicates the intasome band. INSTI, integrase strand transfer inhibitor. Source data are provided as a Source Data File.
(1 picture or pasted object on this page, not shown here)

[4] = test system: HTLV-1; conditions: cited from earlier work
[5] = biological target: T1, recombinant HTLV-1 IN (Human T-cell leukemia virus 1, UniProt P03362); conditions: previously obtained values, read-out: HTLV-1 IN strand transfer IC50, cited from earlier work
T1 construct: made in house

[6] = biological target: 6xHis-tagged STLV-1 MarB43 integrase A219E (simian T-cell lymphotropic virus type 1 (STLV-1), isolate MarB43); assay: pull-down
[7] = biological target: STLV-1 IN(A219E) as assembled into the intasome for cryo-EM (simian T-cell lymphotropic virus type 1 (STLV-1), isolate MarB43); assay: cryo-EM structure

In the case of `O=C(NCc1c(F)cc(F)cc1F)c1cn2c(c(O)c1=O)C(=O)N1[C@H]3CC[C@H](C3)O[C@@H]1C2` [Bictegravir], the “improvement in EC50 compared with RAL” value [1] is listed as 20 fold, the EC50 [2] is listed as 1.6 ± 0.4 nM and the “percentage of intasome retained” value ([3]; 1 uM, Replicate 1) is listed as 54.7791%. For the same molecule, the “percentage of intasome retained” value ([3]; 1 uM, Replicate 2) was 56.5068%, the “percentage of intasome retained” value ([3]; 50 uM, Replicate 1) was 73.5691% and the “percentage of intasome retained” value ([3]; 50 uM, Replicate 2) was 117.429%. For the same molecule, the “percentage of intasome retained” value ([3]; 50 uM, Replicate 3) was 83.837%, the EC50 ([4]; MT-2-Jurkat cell-to-cell infection, read-out: HTLV-1 EC50) was 0.3 ± 0.173 nM and the EC50 ([4]; Replicate 1, previously reported values, read-out: HTLV-1 infection EC50) was 0.54 nM. The EC50 ([4]; Replicate 2, previously reported values, read-out: HTLV-1 infection EC50) was 0.44 nM, the IC50 ([5]; Replicate 1) was 163 nM and the IC50 ([5]; Replicate 2) was 136 nM. For the same molecule, the IC50 ([5]; Replicate 3) was 212 nM.
With “LEDGF/ΔIBD-B56γ (from UniProt Q13362 11-380)” the fold B56γ recovered against WT IN [6] was 2 fold.
“STLV-1 IN(A219E) as assembled into the intasome for cryo-EM (enzyme)” showed a stoichiometry N [7] of 4.
